Test results published in patent publication US9179679B2, “Synergistic herbicidal composition containing penoxsulam and flazasulfuron” (Dow AgroSciences LLC, priority 2010, dated 2015).

How the values were obtained:
Assay type in all cases: in vivo
mallow (Malva L., MALSS) = experiment: Postemergence field trial #2, visual weed control in vines; details: 118 to 158 days after application, penoxsulam 7 and/or flazasulfuron 25 grams ai/ha
Experimental: (§1) These trials were conducted under field conditions in France. Trial sites were located in commercially grown vines of European grape (Vitis vinifera). The grapes were grown using normal cultural practices for fertilization, seeding, and maintenance to ensure good growth of the crop and the weeds. The trials were conducted using normal research methodology. Trial plots were between 2 to 4.5 meters (m) wide by 5.5 to 10 m long. All treatments were applied using a randomized complete block trial design with 3 or 4 replications per treatment. The trial sites had naturally occurring populations of weeds. The weed spectrum included, but was not limited to, black nightshade (Solanum nigrum, SOLNI), pigeongrass or foxtail millet (Setaria sp., SETSS), common lambsquarter (Chenopodium album, CHEAL), round-leaved cranesbill (Geranium rotundifolium, GERRT), common groundsel (Senecio vulgaris, SENVU), mallow (Malva L., MALSS) and common purslane (Portulaca oleracea, POROL).
(§2) Treatments consisted of tank mixes of an oil dispersion of penoxsulam and commercially available formulations of flazasulfuron (Katana herbicide, water dispersible granules) applied in water. The application volumes were between 150-325 liters per hectare (L/ha). All application were made using precision gas hand sprayers using a 2 or 3 m boom using flat fan (80° or 110°) nozzles to broadcast the treatments on the soil.
(§3) The treated plots and control plots were rated blind at various intervals after application. Ratings were based of Percent (%) Visual weed control, where 0 corresponds to no injury and 100 corresponds to complete kill.
(§4) Colby's equation was used to determine the herbicidal effects expected from the mixtures (Colby, S. R. Calculation of the synergistic and antagonistic response of herbicide combinations. Weeds 1967 15, 20-22).
(§5) The following equation was used to calculate the expected activity of mixtures containing two active ingredients, A and B: Expected=A+B−(A×B/100)
(§6) A=observed efficacy of active ingredient A at the same concentration as used in the mixture;
(§7) B=observed efficacy of active ingredient B at the same concentration as used in the mixture.

[1] = system: common purslane (Portulaca oleracea, POROL); experiment: as above; details: 118 to 158 days after application, penoxsulam 7 and/or flazasulfuron 25 grams ai/ha
Experimental: as §1, §2, §3, §4, §5, §6, §7

[2] = system: round-leaved cranesbill (Geranium rotundifolium, GERRT); experiment: as above; details: 118 to 158 days after application, penoxsulam 7 and/or flazasulfuron 25 grams ai/ha
Experimental: as §1, §2, §3, §4, §5, §6, §7

[3] = system: common groundsel (Senecio vulgaris, SENVU); experiment: as above; details: 118 to 158 days after application, penoxsulam 7 and/or flazasulfuron 25 grams ai/ha
Experimental: as §1, §2, §3, §4, §5, §6, §7

[4] = system: common purslane (Portulaca oleracea, POROL); experiment: Postemergence field trial #3, visual weed control in vines; details: 83 to 158 days after application, penoxsulam 7 and/or flazasulfuron 25 grams ai/ha
Experimental: as §1, §2, §3, §4, §5, §6, §7

[5] = system: round-leaved cranesbill (Geranium rotundifolium, GERRT); experiment: as above; details: 83 to 158 days after application, penoxsulam 7 and/or flazasulfuron 25 grams ai/ha
Experimental: as §1, §2, §3, §4, §5, §6, §7

[6] = system: common groundsel (Senecio vulgaris, SENVU); experiment: as above; details: 83 to 158 days after application, penoxsulam 7 and/or flazasulfuron 25 grams ai/ha
Experimental: as §1, §2, §3, §4, §5, §6, §7

[7] = system: black nightshade (Solanum nigrum, SOLNI); experiment: as above; details: 83 to 158 days after application, penoxsulam 7 and/or flazasulfuron 25 grams ai/ha
Experimental: as §1, §2, §3, §4, §5, §6, §7

[8] = system: pigeongrass or foxtail millet (Setaria sp., SETSS); experiment: Postemergence field trial #1, visual weed control in vines; details: 68 to 147 days after application, penoxsulam 7 and/or flazasulfuron 25 grams ai/ha
Experimental: as §1, §2, §3, §4, §5, §6, §7

[9] = system: black nightshade (Solanum nigrum, SOLNI); experiment: as above; details: France, 68 to 147 days after application, penoxsulam 7 and/or flazasulfuron 25 grams ai/ha; for SOLNI (2) Obs - percent control observed: Field trial #1, Echallat; for SOLNI (1) Obs - percent control observed: Field trial #1, Port A Binson
Experimental: as §1, §2, §3, §4, §5, §6, §7

[10] = system: common lambsquarter (Chenopodium album, CHEAL); experiment: as above; details: 68 to 147 days after application, penoxsulam 7 and/or flazasulfuron 25 grams ai/ha
Experimental: as §1, §2, §3, §4, §5, §6, §7

**Q.** Which “MALSS Obs - percent control observed” value (mallow (Malva L., MALSS)) does the source give for `COc1cc(OC)nc(NC(=O)NS(=O)(=O)c2ncccc2C(F)(F)F)n1` [Flazasulfuron, 1-(4,6-dimethoxypyrimidin-2-yl)-3-(3-trifluoromethyl-2-pyridylsulfonyl)urea] here?
**A.** The value was 53%.

**Q.** What about the “POROL Obs - percent control observed” value [1] of the same compound?
**A.** Its value is 78%.

**Q.** What about the “GERRT Obs - percent control observed” value [2] of the same compound?
**A.** Its value is 23%.

**Q.** What about the “SENVU Obs - percent control observed” value [3] of the same compound?
**A.** The value was 30%.

**Q.** What about the “POROL Obs - percent control observed” value [4] of the same compound?
**A.** Its value is 78%.

**Q.** And the “GERRT Obs - percent control observed” value [5]?
**A.** Its value is 23%.

**Q.** What about the “SENVU Obs - percent control observed” value [6] of the same compound?
**A.** The value was 30%.

**Q.** And the “SOLNI Obs - percent control observed” value [7]?
**A.** The value was 1%.

**Q.** What about the “SETSS Obs - percent control observed” value [8] of the same compound?
**A.** The value was 73%.

**Q.** What about the “SOLNI (2) Obs - percent control observed” value [9] of the same compound?
**A.** Its value is 58%.

**Q.** And the “SOLNI (1) Obs - percent control observed” value [9]?
**A.** Its value is 6%.

**Q.** What about the “CHEAL Obs - percent control observed” value [10] of the same compound?
**A.** Its value is 63%.

**Q.** Which results are given for `COc1cnc(OC)n2nc(NS(=O)(=O)c3c(OCC(F)F)cccc3C(F)(F)F)nc12` [Penoxsulam]?
**A.** MALSS Obs - percent control observed (mallow (Malva L., MALSS)): 20%; POROL Obs - percent control observed [1]: 0%; GERRT Obs - percent control observed [2]: 13%; SENVU Obs - percent control observed [3]: 3%; POROL Obs - percent control observed [4]: 0%; GERRT Obs - percent control observed [5]: 13%; SENVU Obs - percent control observed [6]: 3%; SOLNI Obs - percent control observed [7]: 70%; SETSS Obs - percent control observed [8]: 1%; SOLNI (2) Obs - percent control observed [9]: 17%; SOLNI (1) Obs - percent control observed [9]: 1%; CHEAL Obs - percent control observed [10]: 0%
